{"source": "patent US20110263526A1", "about": "“Nitric Oxide Releasing Prodrugs of Therapeutic Agents” (PIRAMAL LIFE SCIENCES LIMITED, priority 2010, published 2011)", "key": {"[1]": {"test_system": "TA100", "assay": "Ames test: toxicity test using TA100 strain", "format": "cell-based, Salmonella typhimurium", "settings": "up to 5000 μg/plate (10-5000 μg/plate)", "text": "(§1) AMES test or bacterial reverse mutation test uses five mutant strains (i.e., TA98, TA100, TA1535, TA1537, TA102) of Salmonella typhimurium to test the mutagenicity of chemical substances (Kristien Mortelmans and Errol Zeiger, The Ames Salmonella/microsome mutagenicity assay, Mutation Research 2000, 455, 29-60 and the relevant reference cited therein). These mutants are called his mutants because of their dependence on an external source of histidine to grow. The test also uses one trp mutant strain WP2 uvrA (which needs external supply of tryptophan for its growth) of Escherichia coli (Kristein Mortelmans and Edward S. Riccio, The bacterial tryptophan reverse mutation assay with Escherichia coli WP2, Mutation Research 2000, 455, 61-69 and the relevant references cited therein). If the bacteria are incubated in the presence of a mutagen, a reverse mutation is induced, and the bacteria will grow. However, if the chemical substance is not mutagenic, there will be no reversion and thus no growth. The result is thus obtained in the absence of metabolic activation. Because many chemicals that are poor mutagens become potent mutagens after they have passed through the liver, homogenate of rat liver, called the S9 extract, are added to the bacteria before incubation. The bacteria/S9 mixture is then plated on a medium containing no histidine (use of tryptophan-deficient medium in case of E. coli strain), and the test chemical is placed in the center of the plate. The result is thus obtained in the presence of metabolic activation. A second plate that contains a non-mutagenic solvent as a negative control and a third plate that contains a known mutagen as a positive control are also run simultaneously. All the 3 types of plates (each type of plate, in fact, run simultaneously in triplicate for obtaining statistically significant data) are incubated for 48 hours at 37° C. The above procedure is called the plate incorporation method. The presence of numerous colonies of revertants in the test disk indicates a positive result: that is, the chemical substance is a mutagen (i.e., mutagenic if the increase in revertants is >2 fold for TA98, TA100, TA102 and WP2/uvrA or >3 fold for TA1535 and TA1537). Also, a positive result would be considered reliable when there is a dose-dependent increase in revertants at any two consecutive non-toxic concentrations which can be in the range of 10-5000 μg/plate. The presence of only a few spontaneous revertant colonies indicates a negative result. If a negative or equivocal result is obtained, the pre-incubation method is performed in which the cells are exposed to the test compounds for 30 min before plating. Also, before Ames test is initiated, a toxicity test on the chemical substance is performed using TA100 strain in the concentration range of 10-5000 μg/plate. […] When the test substance is found to be toxic at higher concentration range then the genotoxicity of that material is tested only in the non-toxic lower concentration range."}, "[2]": {"test_system": "Salmonella strains TA100, TA98, TA1535, TA1537 and TA102 and Escherichia coli strain WP2 uvrA", "assay": "AMES genotoxicity assay (bacterial reverse mutation test), six strains", "format": "cell-based, Salmonella typhimurium; Escherichia coli", "settings": "up to 5000 μg/plate (10-5000 μg/plate)", "text": "as §1"}, "[3]": {"test_system": "carrageenan-induced rat paw edema", "assay": "Anti-inflammatory activity in carrageenan-induced rat paw edema model", "format": "in vivo, male Sprague-Dawley rats", "settings": "for Anti-inflammatory activity (% Inhibition) @ 3 hours / Anti-inflammatory activity (% Inhibition) @ 5 hours: inhibition of paw edema vs control, Mean ± SEM, n = 8; for Anti-inflammatory activity (% Inhibition) @ 3 hours: oral dose containing 5 mg/kg of naproxen in PEG 400, 3 hours after carrageenan; for Anti-inflammatory activity (% Inhibition) @ 5 hours: oral dose containing 5 mg/kg of naproxen in PEG 400, 5 hours after carrageenan", "protocol": "[…] […] One hour later, carrageenan (100 μl, 1% w/v) was injected in to their paws. The control group received PEG 400 (1 ml/kg)."}, "[4]": {"test_system": "rats", "assay": "Ulcerogenic activity (gastric ulcer lesions) in rats", "format": "in vivo", "settings": "dose containing 100 mg/kg of naproxen; for Gastric ulcers (Mean ± SEM) (mm^2) @ 100 mg/kg eq. @ 5 hours: overnight fasted rats, sacrificed after 5 h, total area of lesions; for Ulcer development (in words): rats, 5 h", "protocol": "The animals were sacrificed after 5 h of drug administration. The stomachs of the animals treated were separated, perfused with 2% formalin (10 ml), and then a large curvature was excised. The severity of the mucosal damage was assessed on the basis of the size of the observed ulcer lesions in the images captured using a stereomicroscope attached to a digital camera (Stemi 2000, Zeiss, Germany). The Image Pro Plus software (version 5.1) was used to quantify the hemorrhagic/ulcer lesions in pixels and converted into mm^2. The total area of lesions were calculated for each treatment group and the measure of gastric ulcers (Mean±SEM) (mm^2) presented in Table 3."}}, "note": "Entries after “also recorded” stand apart in the source; their conditions may differ.", "data": [{"smiles": "CC(OC(=O)OC/C=C\\COC(=O)C[C@H](O)C[C@H](O)CCn1c(-c2ccc(F)cc2)c(-c2ccccc2)c(C(=O)Nc2ccccc2)c1C(C)C)O[N+](=O)[O-]", "note": "(stereo partly drawn) [I-CD8-L2-R1, (3R,5R)-((Z)-4-((1-(nitrooxy)ethoxy)carbonyloxy)but-2-enyl) 7-(2-(4-fluorophenyl)-5-isopropyl-3-phenyl-4-(phenylcarbamoyl)-1H-pyrrol-1-yl)-3,5-dihydroxyheptanoate]", "values": [{"measurement": "melting point", "value": "56 to 58", "unit": "°C"}]}, {"smiles": "COc1ccc2cc([C@H](C)C(=O)OCCSSCCOC(=O)OC(C)O[N+](=O)[O-])ccc2c1", "note": "(stereo partly drawn) [I-CD1-L1-R1, (2S)-2-((2-((1-(nitrooxy)ethoxy)carbonyloxy)ethyl)disulfanyl)ethyl 2-(6-methoxynaphthalen-2-yl)propanoate]", "values": [{"measurement": "Toxicity to TA100", "setting": "[1]", "value": "non-toxic to TA100"}, {"measurement": "Genotoxicity to 6 strains", "setting": "[2]", "value": "non-mutagenic in all the aforementioned six bacterial strains; also recorded: Non-genotoxic"}]}, {"smiles": "COc1ccc2cc([C@H](C)C(=O)OCCCSCCCOC(=O)OC(C)O[N+](=O)[O-])ccc2c1", "note": "(stereo partly drawn) [I-CD1-L18-R1, (2S)-3-(3-((1-(nitrooxy)ethoxy)carbonyloxy)propylthio)propyl 2-(6-methoxynaphthalen-2-yl)propanoate]", "values": [{"measurement": "Toxicity to TA100", "setting": "[1]", "value": "non-toxic to TA100"}, {"measurement": "Genotoxicity to 6 strains", "setting": "[2]", "value": "non-mutagenic in all the aforementioned six bacterial strains; also recorded: Non-genotoxic"}]}, {"smiles": "CC(=O)Nc1ccc(OC(=O)c2ccc(COC(=O)OC(C)O[N+](=O)[O-])cc2)cc1", "note": "(centres unmarked) [HD5-L20-R1, 4-Acetamidophenyl 4-(((1-(nitrooxy)ethoxy)carbonyloxy)methyl)benzoate]", "values": [{"measurement": "melting point", "value": "149 to 152", "unit": "°C"}]}, {"smiles": "COc1ccc2cc([C@H](C)C(=O)OCCS(=O)(=O)CCOC(=O)OC(C)O[N+](=O)[O-])ccc2c1", "note": "(stereo partly drawn) [I-CD1-L17-R1, (2S)-2-(2-((1-(nitrooxy)ethoxy)carbonyloxy)ethylsulfonyl)ethyl 2-(6-methoxynaphthalen-2-yl)propanoate]", "values": [{"measurement": "Toxicity to TA100", "setting": "[1]", "value": "Non-toxic"}, {"measurement": "Genotoxicity to 6 strains", "setting": "[2]", "value": "Non-mutagenic with TA 1535"}, {"measurement": "melting point", "value": "98 to 100", "unit": "°C"}]}, {"smiles": "COc1ccc2cc([C@H](C)C(=O)OCCCOC(=O)OC(C)O[N+](=O)[O-])ccc2c1", "note": "(stereo partly drawn) [I-CD1-L4-R1, (2S)-3-((1-(nitrooxy)ethoxy)carbonyloxy)propyl 2-(6-methoxynaphthalen-2-yl) propanoate]", "values": [{"measurement": "Toxicity to TA100", "setting": "[1]", "value": "non-toxic to TA100"}, {"measurement": "Genotoxicity to 6 strains", "setting": "[2]", "value": "non-mutagenic in all the aforementioned six bacterial strains; also recorded: Non-genotoxic"}]}, {"smiles": "CCCC1O[C@@H]2C[C@H]3[C@@H]4CCC5=CC(=O)C=C[C@]5(C)[C@H]4[C@@H](O)C[C@]3(C)[C@]2(C(=O)COC(=O)c2ccc(COC(=O)OC(C)O[N+](=O)[O-])cc2)O1", "note": "(some centres unmarked) [I-HD4-L20-R1]", "values": [{"measurement": "Toxicity to TA100", "setting": "[1]", "value": "Non-toxic"}, {"measurement": "Genotoxicity to 6 strains", "setting": "[2]", "value": "Non-mutagenic with TA 1535"}]}, {"smiles": "COc1ccc2cc([C@H](C)C(=O)O)ccc2c1", "note": "[Naproxen, naproxen, reference compound]", "values": [{"measurement": "Anti-inflammatory activity (% Inhibition) @ 3 hours", "setting": "[3]", "value": "65.45 ± 5.84", "unit": "%"}, {"measurement": "Anti-inflammatory activity (% Inhibition) @ 5 hours", "setting": "[3]", "value": "49.09 ± 10.35", "unit": "%"}, {"measurement": "Gastric ulcers (Mean ± SEM) (mm^2) @ 100 mg/kg eq. @ 5 hours", "setting": "[4]", "value": "75 ± 13", "unit": "mm^2"}, {"measurement": "Ulcer development (in words)", "setting": "[4]", "value": "severe haemorrhagic lesions"}]}, {"smiles": "COc1ccc2cc([C@H](C)C(=O)OCC[S+]([O-])CCOC(=O)OC(C)O[N+](=O)[O-])ccc2c1", "note": "(stereo partly drawn) [I-CD1-L16-R1, (2S)-2-(2-((1-(nitrooxy)ethoxy)carbonyloxy)ethylsulfinyl)ethyl 2-(6-methoxynaphthalen-2-yl)propanoate]", "values": [{"measurement": "Toxicity to TA100", "setting": "[1]", "value": "non-toxic to TA100"}, {"measurement": "Genotoxicity to 6 strains", "setting": "[2]", "value": "non-mutagenic in all the aforementioned six bacterial strains; also recorded: Non-genotoxic"}, {"measurement": "melting point", "value": "112 to 115", "unit": "°C"}]}, {"smiles": "CCCCc1nc(Cl)c(COC(=O)c2ccc(COC(=O)OC(C)O[N+](=O)[O-])cc2)n1Cc1ccc(-c2ccccc2-c2nnn[nH]2)cc1", "note": "(centres unmarked) [HD6-L20-R1, (1-((2′-(1H-Tetrazol-5-yl)biphenyl-4-yl)methyl)-2-butyl-4-chloro-1H-imidazol-5-yl)methyl 4-(((1-(nitrooxy)ethoxy)carbonyloxy)methyl)benzoate]", "values": [{"measurement": "melting point", "value": "107 to 109", "unit": "°C"}]}, {"smiles": "COc1ccc2cc([C@H](C)C(=O)OC/C=C\\COC(=O)OC(C)O[N+](=O)[O-])ccc2c1", "note": "(stereo partly drawn) [I-CD1-L2-R1, (2S)-((Z)-4-((1-(nitrooxy)ethoxy)carbonyloxy)but-2-enyl) 2-(6-methoxynaphthalen-2-yl)propanoate]", "values": [{"measurement": "Anti-inflammatory activity (in words)", "setting": "[3]; carrageenan-induced rat paw edema model, dose containing 5 mg/kg of naproxen", "value": "anti-inflammatory activity comparable to that of naproxen"}, {"measurement": "Anti-inflammatory activity (% Inhibition) @ 3 hours", "setting": "[3]", "value": "54.27 ± 5.31", "unit": "%"}, {"measurement": "Anti-inflammatory activity (% Inhibition) @ 5 hours", "setting": "[3]", "value": "36.61 ± 8.92", "unit": "%"}, {"measurement": "Gastric ulcers (Mean ± SEM) (mm^2) @ 100 mg/kg eq. @ 5 hours", "setting": "[4]", "value": "0 ± 0", "unit": "mm^2"}, {"measurement": "Ulcer development (in words)", "setting": "[4]", "value": "none of the animals treated with the nitric oxide releasing prodrug of naproxen, I-CD1-L2-R1 showed any signs of development of ulcers"}, {"measurement": "Toxicity to TA100", "setting": "[1]", "value": "non-toxic to TA100"}, {"measurement": "Genotoxicity to 6 strains", "setting": "[2]", "value": "non-mutagenic in all the aforementioned six bacterial strains; also recorded: Non-genotoxic"}, {"measurement": "melting point", "value": "76 to 78", "unit": "°C"}]}]}
